Three compounds from EP1992637A1, “1-Aminocyclopentane-1,3,4- tricarboxylic acids derivatives” (priority 2007, dated 2008) can be followed below.

Series [1] is described as follows: In vivo pharmacokinetic evaluation (ACPT-I in plasma, LC/MS/MS). To be noted: rat, po, 30 mg/kg.
The test system of a further series is haldol-induced catalepsy. Briefly: Haldol-induced catalepsy model of Parkinson's disease, bar test. The series is classed as in vivo. To be noted: mice. The method, then:
The compounds of the invention were evaluated in a model of Parkinson's disease, the haldol-induced catalepsy model in mice. Catalepsy was assessed using the bar test in mice submitted to acute administration of the dopamine D2 receptor antagonist haloperidol (1mg/kg, intraperitoneally or ip). Mice (male RjOrl: Swiss mice, weighing 30 - 35 g at the beginning of the experiment) placed in group of 5 in Plexiglas cages, were injected with haloperidol (1 mg/kg ip). […] The catalepsy response of one mouse was measured as the time the animal maintained an imposed posture with both forelimbs placed on a horizontal 0.9cm-diameter wire bar suspended 4cm above a platform. The end point of catalepsy was considered to occur when both forelimbs were removed from the bar, the mouse climbed onto the bar or if the animal moved its head in an exploratory manner. A cutoff time of 180 seconds was applied. The degree of catalepsy was scored 60 minutes after haloperidol administration and continued at 30 or 60 minutes intervals for a total of 240-300 minutes. Between measurements, the animals were returned to their home cages. This procedure was adapted from the literature: (e.g. Pires et al., Braz J Med and Biol Res 38, 1867-1872, 2005; Shiozaki et al., Psychopharmacology 147, 90-95, 1999). Parent compound and corresponding vehicle, given either intraperitoneally (ip) or orally (po), were administered 30 minutes after haldol administration. Prodrugs and corresponding vehicle were injected 4h before haldol administration. Prodrug dose is expressed in equivalent of parent compound.
Data analysis: the figures 2 and 3 show the mean time of latency spent on the bar for each group of animals. At each time-point, the anti-cataleptic effects of parent compound and prodrugs were compared to vehicle-treated groups using 1-factor ANOVA test followed by the Dunnett's test. Datapoints marked with "*" in figures 3 or 4 indicates p<0.05; "**" indicates p<0.01.

Where [2] appears, read: 100mg/kg orally (dose in equivalent of parent compound), given 4h before haldol (1 mg/kg ip).

For the compound `N[C@@]1(C(=O)O)C[C@H](C(=O)O)[C@H](C(=O)O)C1` [ACPT-I, (1S, 3R, 4S) -1-aminocyclopentane-1,3,4-tricarboxylic acid], in series [1], the bioavailability (in general, dose-corrected exposure relative to a reference, in per cent) came out at 1.14%. For the same compound, the anticataleptic activity result in the series on haldol-induced catalepsy (30mg/kg ip, given 30 minutes after haldol (1 mg/kg ip)) is “significantly reduced catalepsy”; in the series on haldol-induced catalepsy (100mg/kg oral administration, given 30 minutes after haldol (1 mg/kg ip)), “no anticataleptic activity”. Consider `CC(C)C[C@H](N)C(=O)N[C@@]1(C(=O)O)C[C@H](C(=O)O)[C@H](C(=O)O)C1` [Example 1, (1S, 3R, 4S)-1-{[(2'S)-2'-amino-4'-methylpentanoyl]amino}cyclopentane-1,3,4-tricarboxylic acid], for which the anticataleptic activity entry in the series on haldol-induced catalepsy (setting [2]) is reported as “significantly reduced the haldol-induced cataleptic response”. `C[C@H](N)C(=O)N[C@@]1(C(=O)O)C[C@H](C(=O)O)[C@H](C(=O)O)C1` [Example 3, (1S, 3R, 4S)-1-{[(2'S)-'2-aminopropanoyl]amino}cyclopentane-1,3,4-tricarboxylic acid]: the anticataleptic activity entry with haldol-induced catalepsy (setting [2]) is given as “significantly reduced the haldol-induced cataleptic response”.
